We go through five molecules from PMC5514404 (EBioMedicine, 2017).

A word on the IC50: it is the midpoint of a concentration-inhibition curve.

One data set has as its system HIV-1 replication. The following applies: ref Ewart et al., 2004; cited from earlier work.
In data set [1] the test system is wt HIV-1BRU production by HEK293T cells. The class given is cell-based. The following applies: p24 ELISA; ouabain; P<0.01 over untreated. (ELISA stands for enzyme-linked immunosorbent assay.)
In another data set the test system is rat Na^+,K^+-ATPase. The following applies: ref Emanuel et al., 1988; cited from earlier work.
In data set [2] the test system is VSV-G pseudotyped HIV-1NL4.3E-R-Luc production by HEK293T cells. It counts as cell-based.
In data set [3] the test system is rat Na^+,K^+-ATPase α1 (interaction with Tat). Briefly: Co-immunoprecipitation of Tat with transfected rat Na^+,K^+-ATPase α1. The following applies: HEK293T transfected with rat α1 constructs and Tat86-TK / Tat11-TK.
Data set [4] concerns HIV-1BRU infectivity in primary CD4 + lymphocytes. The class given is cell-based. The following applies: p24 at 72 h, P < 0.01.
The test system of data set [5] is extracellular HIV-1 Tat release from HEK293T cells. Briefly: HIV-1 Tat secretion assay. It counts as cell-based, human.
Data set [6] relates to VSV-G-pseudotyped HIV-1NL4.3E-R-Luc infection of Jurkat cells. The class given is cell-based.
Data set [7] deals with HIV-1 LTR transactivation in HL3T1 cells by supernatants of Tat86-transfected HEK293T cells. Kind of data set: Transcellular transactivation assay. The following applies: ouabain 25 μM, 4 h; HL3T1 24 h; CAT ELISA. The class given is cell-based.
In data set [8] the test system is Na^+,K^+-ATPase α1 subunit (interaction with Tat). Briefly: Co-immunoprecipitation of Tat with endogenous Na^+,K^+-ATPase α1 subunit. The following applies: HEK293T, Tat86 transfected; ouabain 25 μM, 4 h. It counts as cell-based, human.
In a further data set the test system is HEK293T cells. The following applies: ouabain 15 h.
The subject of data set [9] is VSV-G-pseudotyped HIV-1NL4.3E-R-Luc infectivity in Jurkat cells. The class given is cell-based.
For data set [10], the system named is HIV-1BRU infectivity in Jurkat cells. The class given is cell-based. The following applies: P < 0.01.
The target of data set [11] is Tat86 used in surface plasmon resonance (HIV-1 (strain HXB2), UniProt P04608 1-86). Kind of data set: SPR. For orientation: In SPR one partner is held on a chip, and binding of the other changes the refractive index at the surface.

With `CCN(c1nc(N)c(C(=O)NC(=N)N)nc1Cl)C(C)C` [EIPA, 5-(N-ethyl-N-isopropyl)amiloride], the “effect on HIV-1 replication” value in the data set on HIV-1 replication is on record as “known to limit HIV-1 replication”.
On to `C[C@@H]1O[C@@H](O[C@H]2C[C@@H](O)[C@]3(CO)[C@H]4[C@H](O)C[C@]5(C)[C@@H](C6=CC(=O)OC6)CC[C@]5(O)[C@@H]4CC[C@]3(O)C2)[C@H](O)[C@H](O)[C@H]1O` [ouabain], for which the “production of wt HIV-1BRU virions” value in data set [1] is on record as “The same was also observed for wt HIV-1BRU virions”. Also, in the data set on rat Na^+,K^+-ATPase, the “sensitivity of rat Na^+,K^+-ATPase enzyme to ouabain” value is “insensitive to ouabain”. Besides, the “production of VSV-G pseudotyped virions” value in [2] is reported as “significantly decreased the production of VSV-G pseudotyped virions”. The “co-immunoprecipitation with Tat / ouabain effect, rat α1” value in data set [3] was “binding is not sensitive to ouabain”. The “infectivity of HIV-1BRU produced in presence of ouabain” value in data set [4] is on record as “markedly less infectious”. Moreover, the “effect on Tat protein production” value in data set [5] (protein levels in whole cell extracts, ouabain 25 μM) was “did not affect Tat protein production”. In addition, the “effect of ouabain present at infection on virions produced without ouabain” value in data set [6] is listed as “unaffected by the presence of the drug”. The “effect of ouabain on transcellular transactivation” value in data set [7] was “blocked transcellular transactivation”. Further, in data set [8], the “effect on Tat-α1 co-immunoprecipitation (endogenous α1)” value is “abolished this interaction”. In addition, the “cell toxicity during virus production” value in the data set on HEK293T cells was “did not exert significant cell toxicity”. In [9], the “infectivity of virions produced in presence of ouabain” value is “markedly less infectious” and the “viral integration (Alu-PCR) by virions produced in presence of ouabain” value is “reduced viral integration”. In data set [10], the “viral integration (Alu-PCR) by HIV-1BRU produced in presence of ouabain” value was “reduced viral integration”. Also, the “infectivity of HIV-1BRU produced in presence of ouabain” value in [10] (p24 at 72 h) is “markedly less infectious”.
As to heparin, the “amount of free Tat-TK protein in the supernatant” value in [5] (HEK293T, soluble heparin 25 μM) was “increased”.

B1: PMIX, equimolar mixture of the individual P1, P2 and P3 peptides (other, rat)
peptide 1: YEQAESDIMKRQPRNPKTDK
peptide 2: TRRNSVFQQGMKN
peptide 3: LIIRRRPGGWVEKETYY
Molecule B1 registered a half-inhibitory concentration (IC50) in data set [11] of 0.5 µM.
In data set [11], TRRNSVFQQGMKN (peptide, UniProt P06685 939-951, looked up) [synthetic P2 peptide] registered an IC50 of 10 µM.
